Data on 6 molecules can be found in BindingDB's records for doi:10.1016/j.bmcl.2016.04.067 (Peking University Health Science Center, 2016).

Assay [1] is described as follows: Inhibition of trypsin-like activity of 20S human proteasome assessed as Z-LRR-AMC hydrolysis at using Promega proteasome-Glo-3 substrate incubated for 15 mins by luminescence assay.
Assay [2] is described as follows: Inhibition of caspase-like activity of 20S human proteasome assessed as Z-nLPnLD-AMC hydrolysis at using Promega proteasome-Glo-3 substrate incubated for 15 mins by luminescence assay.

SMILES strings stand for the structures.

Take `O=c1c2ccccc2c(-c2ccc(OCCCC[P+](c3ccccc3)(c3ccccc3)c3ccccc3)cc2)nn1-c1ccccc1`: the IC50 was 220 µM in assay [1] and 103 µM in assay [2].

Take `O=c1c2ccccc2c(-c2ccc(OCCCC[P+](c3ccccc3)(c3ccccc3)c3ccccc3)cc2)nn1-c1cccs1`: the IC50 was 558 µM in assay [1] and 70.5 µM in assay [2].

With `CNc1ccc(-n2nc(-c3ccc(OCCCC[P+](c4ccccc4)(c4ccccc4)c4ccccc4)cc3)c3ccccc3c2=O)cc1`, the values for the IC50 in assay [1] and in assay [2] were 390 µM and 131 µM, respectively.

For `CC(C)Cn1nc(-c2ccc(OCCCC[P+](c3ccccc3)(c3ccccc3)c3ccccc3)cc2)c2ccccc2c1=O`, the IC50 in assay [1] was 276 µM; in assay [2], 80.2 µM.

In the case of `O=c1c2ccccc2c(-c2ccc(OCCCC[P+](c3ccccc3)(c3ccccc3)c3ccccc3)cc2)nn1CC1CC1`, the IC50 was 589 µM in assay [1] and 133 µM in assay [2].

With `O=c1c2ccccc2c(-c2ccc(OCCCC[P+](c3ccccc3)(c3ccccc3)c3ccccc3)cc2)nn1CC1CCCCC1`, the IC50 was 643 µM in assay [1] and 50.4 µM in assay [2].
